# Measured values taken from US20170273917A1, “NMDA RECEPTOR ANTAGONISTS FOR TREATING GAUCHER DISEASE” (Yeda Research and Development Co. Ltd., priority 2014, published 2017).
# Experiments:
# [1] = test system: NMDA receptor; assay: Survival of CBE-treated mice given NMDA receptor agonists or antagonists; assay type: in vivo, mouse
# Text: (§1) Mice—Pure inbred mouse strains were obtained from the Jackson laboratories (USA), Harlan UK and Harlan Israel. Specifically, BTBR T^+ Itpr3^tf/J C3H/HeJ, DBA/2J, MRL/MpJ, WSB/EiJ, MOLF/Ei, PWD/PhJ, KK/HiJ, BPL/1J, I/LnJ, BPN/3J, and LP/J were obtained from Jackson; A/J, AKR/J, NZW/LacJ, 129S1/SvImJ were obtained from Harlan laboratories in the UK; and C57BL/6JOlaHsd, BALB/cJ and FVB/NJ were obtained from the Harlan laboratories in Israel. Gba^flox/flox; nestin-Cre mice, a mouse model of GD were generated as described in Vitner et al. Nature Medicine (2014) 20: 204-208; and Enquist, I. B. et al. Proc. Natl. Acad. Sci. USA (2007) 104: 17483-17488. These mice recapitulate many features of human nGD, although their Gba1 deficiency is restricted to neural and macroglial lineages. Mice were maintained under specific pathogen-free conditions and handled according to protocols approved by the Weizmann Institute Animal Care Committee according to international guidelines.
# CBE injections—Conduritol-β-epoxide (CBE) was obtained from Calbiochem Millipore (Darmstadt, Germany). CBE at a dose of 25 mg or 50 mg per kg body weight per day or PBS (control) were administered i.p. to mice daily starting from postnatal day 8 (P8) of age.
# (§2) Treatment with NMDA receptor agonists and antagonists—All agonists and antagonists were administered daily from P8. D-cycloserine (Sigma) was administered daily at a dose of 200 mg/kg/day. MK-801 (Sigma) was administered daily at a dose of 0.3 mg/Kg/day. Memantine (Sigma) was administered daily at a dose of 3 or 30 mg/Kg/day. Ifenprodil (Sigma) was administered daily at a dose of 9 mg/Kg/day.
# [2] = test system: motor coordination of CBE-treated mice; assay: Locomotor testing by the hanging wire test; assay type: in vivo, mouse
# Text: Locomotor testing—Locomotor coordination was weekly evaluated in the treated strains by the hanging wire test, a validated test for LSD mouse models (Alvarez et al. 2008). Briefly, the mouse was placed with forepaws at a center of a horizontal bar (3 mm diameter; 35 mm long).
# To further characterize the effect of CBE treatment on the different strains, motor behavior was followed weekly using the hanging wire test, starting at postnatal day 21 for a period of 2 months. The hanging wire test evaluates coordination and locomotor function, wherein a high score means better coordination. […] Of note, strains PWD/PhJ and WSB/EiJ were excluded in the motor behavior analysis due to their wild behavior.
# [3] = biological target: T1, GBA1 (Mus musculus, UniProt P17439); assay: GBA1 activity assay in brain homogenates of treated mice; assay type: in vivo; conditions: A/J mice, CBE plus memantine
# T1 construct: from tissue; host or cells: mouse brain (frozen half-brain homogenate) of inbred strains treated in vivo with PBS, CBE or CBE plus memantine
# T1 sequence (P17439 20-515): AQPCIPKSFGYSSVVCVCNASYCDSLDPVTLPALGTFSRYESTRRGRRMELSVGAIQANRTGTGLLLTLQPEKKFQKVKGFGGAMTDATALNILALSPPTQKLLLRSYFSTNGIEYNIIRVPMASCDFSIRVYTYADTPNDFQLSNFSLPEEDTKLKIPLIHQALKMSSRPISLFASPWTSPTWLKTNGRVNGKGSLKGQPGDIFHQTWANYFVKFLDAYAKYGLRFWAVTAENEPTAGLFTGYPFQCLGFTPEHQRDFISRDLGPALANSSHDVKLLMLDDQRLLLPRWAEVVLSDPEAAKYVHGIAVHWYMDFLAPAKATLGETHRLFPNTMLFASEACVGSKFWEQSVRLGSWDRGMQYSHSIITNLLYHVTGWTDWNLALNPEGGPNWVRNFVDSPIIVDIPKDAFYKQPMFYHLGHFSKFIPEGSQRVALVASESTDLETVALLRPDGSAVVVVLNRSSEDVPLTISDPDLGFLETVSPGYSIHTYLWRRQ
# Method: GBA1 activity assay—GBA1 activity was performed as previously described (Farfel-Becker et al. Hum Mol Genet. 2014; 23(4):843-54). Briefly, frozen half-brain samples were sonicated in Mcllvaine's buffer (0.1 M citric acid, pH 4.2, 0.2 M Na2HPO4, 29:21, vol:vol). Tissue homogenates containing 50 μg of protein were incubated at 37° C. with 8 μM C6-NBD-GlcCer (Avanti Polar Lipids, Alabaster, Ala., USA) in a final volume of 25 μl Mcllvaine's buffer for 30 minutes. Lipids were extracted and the lower phase separated by thin layer chromatography using chloroform:methanol:9.8 mM CaCl2 (60:35:8, vol:vol:vol) as the developing solvent. C6-NBD-ceramide was identified with an authentic standard using a Typhoon 9410 variable mode imager and bands were quantified by Image-QuantTL (GE Healthcare, Chalfont St Giles, UK).
# To eliminate the possibility that the phenotypic differences observed in the different mouse strains were caused by differential CBE metabolism in the brain, GBA1 enzymatic activity in mice treated for 10 days with CBE or PBS (control) was measured. […] Overall, the remaining GBA1 activity was 5-10% of the controls (FIG. 3A). There was no correlation between GBA1 activity in the brain and life spans neither in the PBS(R^2=0.126, data not shown) nor CBE conditions (R^2=0.0581, FIG. 3B). In addition, no correlation was found between inhibition of GBA1 activity and life span when evaluated according to strains (R^2=0.0085, data not shown).
# [4] = test system: NMDA receptor; assay: Survival of Gba flox/flox; nestin-Cre mice (genetic nGD model) treated with memantine; assay type: in vivo, mouse; conditions: memantine 3 or 30 mg/kg day from P8 vs PBS
# Text: as §1, §2
smiles,measurement,setting,value
N[C@@H]1CONC1=O [D-cycloserine],life spans,"[1]; D-cycloserine 200 mg/kg/day, CBE-treated (25 mg/kg day) long living strains BALB/cJ, FVB/NJ, 129S1/SvImJ, BTBR T+ Itpr3tf/J, daily from P8",reduced the life spans
"CC(C(O)c1ccc(O)cc1)N1CCC(Cc2ccccc2)CC1.O=C(O)C(O)C(O)C(=O)O (stereo not drawn) [Ifenprodil, α-(4-Hydroxyphenyl)-β-methyl-4-benzyl-1-piperidineethanol (+)-tartrate salt]",life spans,"[1]; Ifenprodil 9 mg/Kg/day, CBE (25 mg/kg day)-treated A/J mice, daily from P8",showed increments in the life spans
C[C@]12N[C@H](Cc3ccccc31)c1ccccc12 [MK-801],survival,"[1]; MK-801 0.3 mg/Kg/day, CBE-treated (25 mg/Kg/day) C3H mice, daily from P8",extended the survival
"CC12CC3CC(C)(C1)CC(N)(C3)C2.Cl [Memantine, 3,5-Dimethyl-1-adamantanamine hydrochloride]",progression of the motor dysfunction induced by CBE (hanging wire test),"[2]; A/J mice, CBE plus memantine",delayed the progression of the motor dysfunction
same,hanging wire test score,[2]; memantine-treated CBE mice at postnatal day 49,the same score as CBE-treated mice at P21
same,interference with GBA1 inhibition in the brain,[3]; brains harvested P18 or P70,did not interfere with GBA1 inhibition
same,cerebral GBA1 activity,[3]; postnatal day 70 (P70),almost undetectable
same,survival,[4],significantly extended survival
same,life span,"[1]; memantine 3 mg/kg day plus CBE 25 mg/kg day, A/J, C3H/HeJ, DBA/2J and C57BL6/JolaHsd mice, daily from P8",significantly extended the life span
same,survival,"[1]; memantine 30 mg/kg/day, CBE 50 mg/kg/day, AJ mice, daily from P8",significantly extended survival
same,increase of life span compared with MK-801,[1]; neuropathic GD (CBE-treated) mice,to a greater extent than MK-801
